From patent EP4375289A1, “PEPTIDE WITH ANTIMICROBIAL ACTIVITY” (Freie Universität Berlin, priority 2022, dated 2024)
Square brackets hold non-standard residues; d marks the D form. Peptide text beside a SMILES is read from it. 2Abz = Nc1ccccc1C(=O)O; Abu = CC[C@H](N)C(=O)O

Experiments:
[1] = Peptide-induced membrane disrupting activity; format: biochemical; details: artificial phospholipid membranes at physiological pH
Procedure: Peptide-induced membrane disrupting activity was determined before by calculation of EC50 values and an increase in bioactivity with a growing degree of side chain fluorination was found.

red blood cells = format: cell-based; details: data not shown
Procedure: Hemolysis assays were performed on red blood cells and cytotoxicity tests with two cell lines (HeLa, A549). No potent hemolytic activity for all peptides up to a concentration of 250 µg/mL, corresponding to concentrations of 140 µM (AbuR14) - 125 µM (TfeGlyR14) was determined (data not shown).

E. coli = test: Minimum inhibitory concentration (MIC) assay, CLSI broth dilution; format: cell-based; details: E. coli ATCC 25922
Procedure: (§1) Minimum inhibitory concentrations (MIC) assays were performed according to Clinical and Laboratory Standards Institute (CLSI) recommendations in cation-adjusted Mueller-Hinton broth (Mueller-Hinton II) broth in flat-bottomed, 96-well plates (Corning, Wiesbaden, Germany) with an inoculum of 10^5 bacteria/well and incubated at 37°C overnight. The optical density of the cultures was determined at 460 and 600 nm immediately after inoculation and after overnight incubation using a BioTek Synergy HT plate reader. Controls included bacterial strains, medium alone and wells without peptide additions. A serial dilution of each peptide was done before bacteria addition. A serial dilution of media including the respective peptide solvent without peptides supplement (Dimethylsulfoxid; Sigma-Aldrich, Taufkirchen, Germany or 1 x phosphate buffered saline; Biochrom, Berlin, Germany) functions as control to ensure the solvent influence on growth.

E. faecalis = test: as above; format: cell-based; details: E. faecalis ATCC 29212
Procedure: as §1

K. pneumoniae = test: as above; format: cell-based; details: K. pneumoniae ATCC 700603
Procedure: as §1

P. aeruginosa = test: as above; format: cell-based; details: P. aeruginosa ATCC 27853
Procedure: as §1

S. Typhimurium = test: as above; format: cell-based; details: S. Typhimurium ATCC 14028
Procedure: as §1

S. aureus = test: as above; format: cell-based; details: S. aureus ATCC 29213
Procedure: as §1

C. albicans = test: as above; format: cell-based; details: C. albicans IMT 9655

Row | SMILES | EC50 [1] [µM] | peptide-induced hemolysis at minimum concentrations (red blood cells; red blood cells) [mg/mL] | 1*MIC (E. coli) [µg/mL] | 1*MIC (E. faecalis) [µg/mL] | 1*MIC (K. pneumoniae) [µg/mL] | 1*MIC (P. aeruginosa) [µg/mL] | 1*MIC (S. Typhimurium) [µg/mL] | 1*MIC (S. aureus) [µg/mL] | 1*MIC (C. albicans) [µg/mL] | No potent hemolytic activity up to a concentration (corresponding concentration) (red blood cells; corresponding to 250 µg/mL) [µM]
1 | CC(C)C[C@@H](NC(=O)[C@H](CCCNC(=N)N)NC(=O)[C@H](Cc1c[nH]c2ccccc12)NC(=O)[C@H](CCCNC(=N)N)NC(=O)[C@@H](NC(=O)[C@@H](N)CCCNC(=N)N)C(C)C)C(=O)N[C@H](Cc1ccccc1)C(=O)Nc1ccccc1C(=O)N[C@H](C)C(=O)N[C@@H](CCCNC(=N)N)C(=O)N[C@@H](Cc1c[nH]c2ccccc12)C(=O)N[C@@H](CCCNC(=N)N)C(=O)N[C@H](C(=O)N[C@@H](CCCNC(=N)N)C(=O)O)C(C)C [SAJO-2, H-R-Val-R-Trp-R-[I-f-[2]Abz-a]-R-Trp-R-Val-R-OH, reference compound] (H-RVRWR[dL][dF][2Abz][dA]RWRVR-OH; N-terminus and C-terminus assumed) | 70 | ≥ 0.5 | – | – | – | – | – | – | – | –
2 | CC[C@H](NC(=O)[C@H](CCCNC(=N)N)NC(=O)[C@H](CC)NC(=O)[C@H](CCCNC(=N)N)NC(=O)[C@@H](C)NC(=O)c1ccccc1NC(=O)[C@@H](Cc1ccccc1)NC(=O)[C@@H](CC(C)C)NC(=O)[C@H](CCCNC(=N)N)NC(=O)[C@H](CC)NC(=O)[C@H](CCCNC(=N)N)NC(=O)[C@H](CC)NC(=O)[C@H](CCCNC(=N)N)NC(C)=O)C(=O)N[C@@H](CCCNC(=N)N)C(N)=O [AbuR14, Ac-R-Abu-R-Abu-R-[I-f-[2]Abz-a]-R-Abu-R-Abu-R-NH2] (Ac-R[Abu]R[Abu]R[dL][dF][2Abz][dA]R[Abu]R[Abu]R-NH2) | 148 | – | 128 | 512 | ≥1024 | ≥1024 | 256 | ≥1024 | 512 | > 140
